Measurements taken from EP0199302A2, “Contraception in dogs with luteinizing hormone releasing hormone antagonists” (SYNTEX (U.S.A.) INC., priority 1985, dated 1986).

Legend:
bitch = assay: Plasma progesterone and pregnancy outcome in a bitch given daily subcutaneous injections for 7 days (Example 1); assay type: in vivo, dogs
Description: A bitch was bled and the plasma progesterone measured in nanograms per milliliter versus the day of diestrus. The bitch was bled on day -8 and day -4. The plasma progesterone was 4 to 6 nanograms per milliliter on those two days. At day 1, the plasma progesterone was at 30 nanograms per milliliter and peaked at about 60 on day 9 slowly decreasing to about 30 on day 25. At day 25 the bitch started to receive daily subcutaneous 1 2 3 injections of [N-Ac-D-Nal(2) , D-p-Cl-Phe , D-Trp , D-Deh , D-Ala ] LHRH for 7 days. After the first injection the plasma progesterone level immediately dropped to 4 nanograms per milliliter. At the end of the course of treatment, the level of plasma progesterone was down below 1 nanogram per milliliter. A fetus was expelled the 5th day of treatment and a tissue mass was expelled on day 49, which was 24 days after the start of treatment.

beagle bitch [1] = assay: Single subcutaneous injection in a pregnant beagle bitch: plasma progesterone and abortion (Example 3); assay type: in vivo, dogs; conditions: single subcutaneous injection of 50 mg on the twenty-ninth day of pregnancy
Method: A beagle bitch was bred and confirmed to be pregnant by manual palpation of the uterus during the fourth week of gestation. On the twenty-ninth day of pregnancy […] was administered a single subcutaneous injection of an aqueous solution of 50 mg of [N-Ac-D-Nal(2) , D-p-C1-Phe, D-Trp , D-Deh , D-Ala ]LHRH. Immediately before injection the plasma progesterone levels was 19ng/ml and by 24 hours after injection this had declined to 3.3 ng/ml. Plasma levels of progesterone varied thereafter from day to day but were never above 6 ng/ml. Delivery of an abortus was noted on the 36th day of pregnancy.

pregnant beagle bitches = assay: Effect of time of dosing with two LHRH antagonists on pregnancy in bitches (Example 2, Table 1); assay type: in vivo, dogs; conditions: daily injection for seven days, 300 µg/kg/day
Method: Several pregnant beagle bitches were treated with one of two different LHRH antagonists by subcutaneous injection.

beagle bitch [2] = assay: Termination of estrus in a beagle bitch (Example 4); assay type: in vivo, dogs; conditions: 300 µg/kg/day for 14 days started on day 2 (entering estrus)
Method: A beagle bitch was identified with a slight sanguineous vaginal discharge (day 1 of the experiment). Microscopic evaluation of vaginal cytology confirmed the bitch to be in proestrus. […] She was immediately started on a course of treatment of 300 µg/kg/day for 14 days of [N-Ac-D-Nal(2) , D-p-Cl-Phe , D-Trp , D-Deh ,D-Ala ]LHRH.
The vaginal discharge diminished and was last noted on day 5. By day 6 the bitch was confirmed by vaginal cytology to have reentered diestrus.

pregnant cats = assay: Seven-day subcutaneous minipump infusion in pregnant cats: plasma progesterone and pregnancy (Example 5); assay type: in vivo; conditions: for Plasma level of progesterone: 300 μg/kg/day for seven days
Method: Female cats were bred and 15-18 days later were implanted subcutaneously with an Alzet^8 minipump filled with a solution of [N-Ac-D-Nal(2) , D-p-Cl-Phe , D-Trp , D-Deh ,D-Ala ]LHRH in propylene glycol at a concentration sufficient to deliver 300 µg/kg/day. The pumps were removed after seven days. No effect of treatment on circulating levels of progesterone could be discerned in daily plasma samples.

## N-Ac-D-Nal(2)-D-pCL-Phe-D-Trp-Ser-Tyr-D-Deh-Leu-Arg-ProD-Ala
bitch; bitch, daily subcutaneous injections for 7 days starting day 25 of diestrus
  level of plasma progesterone at the end of the course of treatment: below 1 nanogram per milliliter
bitch; bitch, daily subcutaneous injections for 7 days starting day 25 of diestrus, about 30 on day 25 before treatment
  plasma progesterone level after the first injection: 4 nanograms per milliliter
bitch; day of diestrus, 24 days after the start of treatment
  tissue mass expelled, day: 49
Beagle bitch [1]; 19ng/ml immediately before injection
  plasma progesterone level 24 hours after injection: 3.3 ng/mL
Beagle bitch [1]; later than 24 hours, varied from day to day
  plasma levels of progesterone thereafter: ≤ 6 ng/mL
Pregnant beagle bitches; dog 1, treatment on days 36-42 of pregnancy
  COMMENT (pregnancy outcome): Aborted on days 39-41 of pregnancy
Pregnant beagle bitches; dog 2, treatment on days 32-38 of pregnancy
  COMMENT (pregnancy outcome): Aborted on day 35 of pregnancy
Beagle bitch [2]
  attractiveness to stud males: not attractive to stud males
  reentered diestrus confirmed by vaginal cytology, day of the experiment: ≤ 6
  sexual receptivity: no sign of sexual receptivity
  vaginal discharge last noted, day of the experiment: 5
Pregnant cats; Cat 1, day 0 from treatment
  Plasma level of progesterone: 4.0 ng/mL
Pregnant cats; Cat 1, day 1 from treatment
  Plasma level of progesterone: 2.7 ng/mL
Pregnant cats; Cat 1, day 2 from treatment
  Plasma level of progesterone: 4.3 ng/mL
Pregnant cats; Cat 1, day 3 from treatment
  Plasma level of progesterone: 4.0 ng/mL
Pregnant cats; Cat 1, day 4 from treatment
  Plasma level of progesterone: 4.4 ng/mL
Pregnant cats; Cat 1, day 5 from treatment
  Plasma level of progesterone: 3.8 ng/mL
Pregnant cats; Cat 1, day 6 from treatment
  Plasma level of progesterone: 5.7 ng/mL
Pregnant cats; Cat 1, day 7 from treatment
  Plasma level of progesterone: 3.3 ng/mL
Pregnant cats; Cat 1, day 8 from treatment
  Plasma level of progesterone: 6.5 ng/mL
Pregnant cats; Cat 1, day 9 from treatment
  Plasma level of progesterone: 6.7 ng/mL
Pregnant cats; Cat 1, day 10 from treatment
  Plasma level of progesterone: 5.2 ng/mL
Pregnant cats; Cat 1, day -1 from treatment (before treatment)
  Plasma level of progesterone: 2.0 ng/mL
Pregnant cats; Cat 1, day -2 from treatment (before treatment)
  Plasma level of progesterone: 4.5 ng/mL
Pregnant cats; Cat 2, day 0 from treatment
  Plasma level of progesterone: 2.3 ng/mL
Pregnant cats; Cat 2, day 1 from treatment
  Plasma level of progesterone: 4.1 ng/mL
Pregnant cats; Cat 2, day 2 from treatment
  Plasma level of progesterone: 5.2 ng/mL
Pregnant cats; Cat 2, day 3 from treatment
  Plasma level of progesterone: 3.9 ng/mL
Pregnant cats; Cat 2, day 4 from treatment
  Plasma level of progesterone: 4.2 ng/mL
Pregnant cats; Cat 2, day 5 from treatment
  Plasma level of progesterone: 4.2 ng/mL
Pregnant cats; Cat 2, day 6 from treatment
  Plasma level of progesterone: 6.3 ng/mL
Pregnant cats; Cat 2, day 7 from treatment
  Plasma level of progesterone: 5.5 ng/mL
Pregnant cats; Cat 2, day 8 from treatment
  Plasma level of progesterone: 6.1 ng/mL
Pregnant cats; Cat 2, day 9 from treatment
  Plasma level of progesterone: 7.3 ng/mL
Pregnant cats; Cat 2, day 10 from treatment
  Plasma level of progesterone: 6.7 ng/mL
Pregnant cats; Cat 2, day -1 from treatment (before treatment)
  Plasma level of progesterone: 3.0 ng/mL
Pregnant cats; Cat 2, day -2 from treatment (before treatment)
  Plasma level of progesterone: 4.3 ng/mL
Pregnant cats; cats implanted 15-18 days after breeding, minipump 300 µg/kg/day for seven days
  pregnancy outcome: All treated cats continued to normal uneventful term delivery
Pregnant cats; cats implanted 15-18 days after breeding, minipump 300 µg/kg/day for seven days, daily plasma samples
  effect of treatment on circulating levels of progesterone: No effect
